# Test results: patent US20170280728A1, “ANTIMICROBIAL COMPOSITIONS AND METHODS OF THEIR USE” (CMS TECHNOLOGY, INC.., priority 2014, published 2017)
# Experiments:
# [1] = system: Salmonella enterica serovar Anatum (ATCC #9270); test: Salmonella Assay (liquid sanitizer exposure, log reduction); format: cell-based
# [2] = system: General Bacteria (bacterial bird rinse); test: General Bacteria Assay (Vivione RAPID-B Total Plate Count); format: cell-based
Structure (SMILES),"Treated Sample Reduction ([1]; 0 ppm chlorine, 10 ppm copper, Solution pH 6.0, Control Sample Baseline 7.02 log, n = 3) [log]",antimicrobial effect (in words) ([1]; at lower ppm),"Average Live ([2]; 5 ppm copper, pH at inoculation 5.68, Baseline 1562)","Average Live ([2]; 50 ppm copper, pH at inoculation 4.71, Baseline 1562)",activity against bacteria (in words) ([2]; at 5 ppm and 50 ppm concentrations),"Average Live ([2]; pH at inoculation 2.43, Baseline 408)"
"O.O.O.O.O.O=S(=O)([O-])[O-].[Cu+2] [Copper, Copper (II) sulfate pentahydrate]",3.83,limited antimicrobial effect,1633,1666,negligible activity,
"O=C(O)CC(O)(CC(=O)O)C(=O)O [citric acid @ 0.25%, citric acid]",,,,,,75
